Measurements reported in US7101844B2, “Cytoplasmic transduction peptides and uses thereof” (Creagene, Inc., priority 2002, dated 2006).
“Also recorded” adds a separate entry of the source.

What was measured:
HeLa cells [1] = experiment: Quantitative analysis of the membrane permeability of CTP-β-gal (β-gal activity of lysates of trypsinized cells); assay type: cell-based; conditions: incubation for 20 hr
Experimental: For the quantitatation of the permeability of each CPP-fusion protein, HeLa cells were treated with PTD, MTS and CTP508, 509, 511, 512, 513 and 514, CPP-β-gal fusion proteins for 20 hr as described above, and the cells were trypsinized, followed by measuring the amounts of fusion protein imported into cells. Trypsin-treated cells were washed twice with 10% FBS-containing DMEM (high glucose) to inactivate any residual trypsin activity, and then washed once with 1× PBS. The cells collected by centrifugation were resuspended in a 0.9% Triton-X 100 solution, incubated for 10 min at room temperature to lyse cells, and then the supernatant of each lysate was obtained by centrifugation at 12000 rpm for 2 min. The β-gal activity of each sample was measured at 570 nm using enhanced β-gal assay kit (GTS Inc, USA) and an ELISA reader.

HeLa cells [2] = experiment: Transduction potential of CTP-β-gal following treatment with trypsin (staining); assay type: cell-based; conditions: 50 μg/ml, 20 hr, trypsin before fixation
Experimental: HeLa cells were cultured for 1 day in DMEM (high glucose) at a density of 2×10^5/ml in 48-well plates. Cells were washed once with 1× PBS, and then incubated further for additional 20 hr in OPTI-MEM containing PTD-β-gal, MTS-β-gal, CTP501-β-gal or CTP514-β-gal, respectively, at a concentration of 50 μg/ml. Thereafter, the cells were treated with trypsin-EDTA (10×) for 3 min at 37° C. to remove the CPP-β-gal attached to the cell surface, and then rinsed twice with 1× PBS, followed by fixing with a fixation solution for 10 min at room temperature. After washing twice with 1× PBS, the cells were stained with a staining solution for 2 hr at 37° C. and photographed under a microscope (FIG. 6b).

[3] = tested on: HeLa, L929, RENCA, Jurkat cell lines and splenocytes; experiment: Transduction potential of CTP in various cell types; assay type: cell-based, human, mouse; conditions: FITC-labeled peptide
Experimental: The examples described above analyzed the transduction potential solely by the use of HeLa cells. In this Example, the transduction potential of CTP was evaluated with other cell types including mouse cell lines (mouse fibroblast L929 and mouse renal cancer cell line RENCA), human lymphoid T cell line (Jurkat cells) and primary mouse splenocytes.

HeLa cells [4] = experiment: Transduction of PTD- and CTP-β-galactosidase into HeLa cells (X-gal staining after fixation); assay type: cell-based; conditions: 100 μg/ml, 1 hr; for transduction potential: β-galactosidase fusion protein, HeLa cells, fixation
Text: Although various other substitutions could be performed, it is essential in this invention that the introduction of a positive charge by arginine and the substitution by an α-helix stabilizing amino acid should be carried out for maintaining the principle function of the PTD peptide. Therefore, as a substitute amino acid, the positively charged amino acid is restricted to arginine, and the negatively charged amino acid is restricted to glutamic acid. β-galactosidase was fused to the CTP candidate peptide, the fusion proteins were isolated and purified (see FIG. 2), and HeLa cells were treated with each of the fusion proteins. This was then followed by an analysis of the transduction potential and a determination of the extent of the cytoplasmic remaining property.
The transduction potential of the PTD and CTP candidates was tested with HeLa cells. Using a 24-well plate (Nunc), 5×10^4 HeLa cells were inoculated into high glucose DMEM (containing 10% FBS) and cultured for 36 hr. The cells were rinsed with PBS and treated with 100 μg/ml of PTD- and CTP-β-galactosidase in an opti-MEM I medium. After 1-hr incubation, cells were fixed for 10 min at room temperature with a fixation solution (2% formaldehyde, 0.2% glutaraldehyde in PBS). Then, the cells were rinsed twice with PBS, and stained for 2 hr with dye (0.1% X-gal, 5 mM potassium ferricyanide, 5 mM potassium ferrocyanide, 2 mM MgCl2 in PBS) to examine their transduction potential (see FIG. 3). The samples showing a low level of staining, even after a 2-hr staining, were incubated overnight, and then stained for the relative transduction potential. The transduction potentials of the PTD and CTP candidates into HeLa cells were seen to be in the following order: PTD5<CTP502<<CTP501=CTP506<CTP507<CTP505<CTP503=CTP504<CTP508=CTP510=MTS<CTP509<<PTD=CTP511<<CTP512.

HeLa cells [5] = experiment: Subcellular localization of CTP-FITC by confocal microscope without cell fixation; assay type: cell-based; conditions: FITC-labeled peptide, 25 μg/ml, 1 hr
Text: Fixation step is inevitable for examining the subcellular localization of the transduced β-gal in the cells with antibodies. However, according to the previous reports, the fusion protein attached to cell surface is very likely to be introduced into the cell during a cell fixation procedure, which may affect its transduction potential and its subcellular localization. However, FITC-labeled membrane permeation peptides allow its subcellular localization to be observed under a confocal microscope without cell fixation. Monolayered HeLa cells were treated for 1 hr with FITC-labeled CTP, PTD or MTS at a concentration of 25 μg/ml, and washed three times with HBSS, followed by observation under a confocal microscope without cell fixation.

CTP512: CTP (2G4R8R9R), sequence YGRRARRRRRR; representative CTP used from Example 5-4 on
transduction into HeLa cells (HeLa cells [1]): much higher transduction potential than either the PTD or the MTS
β-gal activity transduced into cells (HeLa cells [2]): much more efficient to transduce β-gal into cells than either PTD or MTS
transduction potential in various cell types [3]: highest transduction potential
transduction potential (HeLa cells [4]): higher transduction potential than the wild type PTD; also recorded: significantly high transduction potential
transduction potential (HeLa cells [4]; listed as CTP 512): transduction potential higher than wild type PTD
order of transduction potentials into HeLa cells (HeLa cells [4]; β-galactosidase fusion, X-gal staining): CTP511<<CTP512
order of transduction potential (HeLa cells [5]): CTP512>513
subcellular localization (HeLa cells [5]): observed only in the cytoplasm, and not in the nucleus
